System: SEM cells
Test: cell viability relative to DMSO control; higher = less cytotoxic
Settings: 48 h
How it was run: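 Viability, reported as a per-plate percentage of DMSO wells with cell-free wells as background, came from CellTiter-Glo One luminescence. Reading took place after 48 h at 37°C. Before that, NOMO1 or SEM (500 cells/well) or P12-Ichikawa (1000 cells/well) leukemia cells, adapted for at least four passages in each medium, were seeded in 1536-well plates (5 μl) and pin-dosed with library compounds in DMSO, 47 μM to 0.79 nM over 11 threefold points.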

[1] = HPLM + 10% dialyzed FBS, 0.000781 µM
[2] = HPLM + 10% dialyzed FBS, 0.00234 µM
[3] = HPLM + 10% dialyzed FBS, 0.00702 µM
[4] = HPLM + 10% dialyzed FBS, 0.0211 µM
[5] = HPLM + 10% dialyzed FBS, 0.0632 µM
[6] = HPLM + 10% dialyzed FBS, 0.19 µM
[7] = HPLM + 10% dialyzed FBS, 0.569 µM
[8] = HPLM + 10% dialyzed FBS, 1.71 µM
[9] = HPLM + 10% dialyzed FBS, 5.12 µM
[10] = HPLM + 10% dialyzed FBS, 15.4 µM
[11] = HPLM + 10% dialyzed FBS, 46.1 µM
[12] = RPMI 5 mM glucose + 10% FBS, 0.000781 µM
[13] = RPMI 5 mM glucose + 10% FBS, 0.00234 µM
[14] = RPMI 5 mM glucose + 10% FBS, 0.00702 µM
[15] = RPMI 5 mM glucose + 10% FBS, 0.0211 µM
[16] = RPMI 5 mM glucose + 10% FBS, 0.0632 µM
[17] = RPMI 5 mM glucose + 10% FBS, 0.19 µM
[18] = RPMI 5 mM glucose + 10% FBS, 0.569 µM
[19] = RPMI 5 mM glucose + 10% FBS, 1.71 µM
[20] = RPMI 5 mM glucose + 10% FBS, 5.12 µM
[21] = RPMI 5 mM glucose + 10% FBS, 15.4 µM
[22] = RPMI 5 mM glucose + 10% FBS, 46.1 µM
[23] = RPMI 5 mM glucose + 10% dialyzed FBS, 0.000781 µM
[24] = RPMI 5 mM glucose + 10% dialyzed FBS, 0.00234 µM
[25] = RPMI 5 mM glucose + 10% dialyzed FBS, 0.00702 µM
[26] = RPMI 5 mM glucose + 10% dialyzed FBS, 0.0211 µM
[27] = RPMI 5 mM glucose + 10% dialyzed FBS, 0.0632 µM
[28] = RPMI 5 mM glucose + 10% dialyzed FBS, 0.19 µM
[29] = RPMI 5 mM glucose + 10% dialyzed FBS, 0.569 µM
[30] = RPMI 5 mM glucose + 10% dialyzed FBS, 1.71 µM
[31] = RPMI 5 mM glucose + 10% dialyzed FBS, 5.12 µM
[32] = RPMI 5 mM glucose + 10% dialyzed FBS, 15.4 µM
[33] = RPMI 5 mM glucose + 10% dialyzed FBS, 46.1 µM

| SMILES | cell viability [1] | cell viability [2] | cell viability [3] | cell viability [4] | cell viability [5] | cell viability [6] | cell viability [7] | cell viability [8] | cell viability [9] | cell viability [10] | cell viability [11] | cell viability [12] | cell viability [13] | cell viability [14] | cell viability [15] | cell viability [16] | cell viability [17] | cell viability [18] | cell viability [19] | cell viability [20] | cell viability [21] | cell viability [22] | cell viability [23] | cell viability [24] | cell viability [25] | cell viability [26] | cell viability [27] | cell viability [28] | cell viability [29] | cell viability [30] | cell viability [31] | cell viability [32] | cell viability [33] |
| --- | --- | --- | --- | --- | --- | --- | --- | --- | --- | --- | --- | --- | --- | --- | --- | --- | --- | --- | --- | --- | --- | --- | --- | --- | --- | --- | --- | --- | --- | --- | --- | --- | --- |
| OC[C@H]1OC(OC2=CC3=C(C(=C2)O)C(=O)\C(=C/O3)C4=CC=C(O)C=C4)[C@H](O)[C@@H](O)[C@@H]1O (stereo partly specified) | 93.7% | 92.9% | 92% | 98.1% | 93% | 79.9% | 69.7% | 93.4% | 81.6% | 78.6% | 65.3% | 97.9% | 86.8% | 111% | 102% | 117% | 89.6% | 89% | 98% | 86.4% | 92.4% | 94.1% | 86.3% | 89.1% | 114% | 94.7% | 106% | 88.3% | 89.8% | 96.6% | 90.3% | 90.1% | 95.8% |
| CC(C)(O)C(=O)Nc1ccc([N+](=O)[O-])c(C(F)(F)F)c1 | 98.6% | 107% | 115% | 108% | 116% | 113% | 124% | 123% | 117% | 123% | 103% | 92.2% | 97% | 91.9% | 91.3% | 101% | 97.6% | 103% | 114% | 104% | 123% | 82.8% | 112% | 114% | 112% | 120% | 112% | 118% | 135% | 123% | 131% | 128% | 126% |
| O=C(NCC1CCOCC1)c1cnc(Nc2ccc(Cl)cc2Cl)nc1C(F)(F)F | 89.6% | 98.1% | 99% | 67.7% | 108% | 103% | 106% | 102% | 99.5% | 114% | 117% | 95.9% | 103% | 108% | 61.9% | 99.1% | 100% | 99.7% | 103% | 99.1% | 105% | 98.5% | 94.2% | 97.8% | 108% | 67.9% | 121% | 119% | 113% | 112% | 91.7% | 123% | 101% |
| C[N]1C=C(C=N1)C2=CC=C3N=CC\4=C(N(C(=O)\C=C4)C5=CC6=C(CCN6C(=O)C=C)C=C5)C3=C2 | 118% | 114% | 96.1% | 120% | 93.9% | 110% | 102% | 82.1% | 27.6% | 4.07% | 4.13% | 104% | 105% | 90.4% | 110% | 117% | 111% | 118% | 80.5% | 26.6% | 2.7% | 3.13% |  |  |  |  |  |  |  |  |  |  |  |
| Oc1ccc([C@@H]2Oc3ccc(O)cc3[C@@H]3CCC[C@@H]32)cc1 | 71.9% | 90.5% | 91.8% | 92% | 80.2% | 90.6% | 38.7% | 81.9% | 89.3% | 31.4% | 21.6% | 60.6% | 103% | 97.5% | 103% | 106% | 111% | 44.4% | 103% | 104% | 40.3% | 18.1% | 80.4% | 94.9% | 98.4% | 97% | 96.1% | 104% | 102% | 103% | 94.9% | 29% | 18.4% |
| CCOC(=O)[C@H]1O[C@@H]1C(=O)N[C@@H](CC(C)C)C(=O)NCCC(C)C | 116% | 119% | 109% | 125% | 120% | 132% | 69.4% | 114% | 118% | 118% | 109% | 111% | 99.4% | 102% | 96.2% | 110% | 88.4% | 91.1% | 124% | 107% | 104% | 94.6% |  |  |  |  |  |  |  |  |  |  |  |
| N#CC[C@H](C1CCCC1)n1cc(-c2ncnc3[nH]ccc23)cn1 | 100% | 104% | 103% | 103% | 94.1% | 85.9% | 103% | 90.1% | 63.7% | 39.6% | 24.5% | 103% | 111% | 86.6% | 108% | 109% | 96.1% | 92.7% | 107% | 50% | 23% | 19.8% | 98.9% | 97.7% | 98.1% | 97.9% | 113% | 99.6% | 96.8% | 87.3% | 63.3% | 31.6% | 26.3% |
| COc1cc2c(Nc3ccc(Cl)c(Cl)c3F)ncnc2cc1OC[C@@H]1C[C@@H]2CN(C)C[C@@H]2C1 | 88.5% | 78.5% | 86.2% | 91.6% | 94.5% | 94.5% | 94.4% | 91.5% | 87.8% | 40% | 3.92% |  |  |  |  |  |  |  |  |  |  |  | 88.8% | 91.6% | 110% | 103% | 121% | 91.1% | 103% | 95.5% | 93.7% | 74.7% | 3.96% |

— the supplement of paper PMC11451515
